Test results as given in paper PMC8074465, “Synthesis of oxadiazole-2-oxide derivatives as potential drug candidates for schistosomiasis targeting SjTGR” (Parasites & Vectors, 2021).
Where “and” joins values, the source holds several entries; their conditions need not be identical. Identical values can stand only once.

The compounds below were run against T1, rSjTGR-Sec (Schistosoma japonicum, UniProt B5THG7) (assay: Inhibition of TrxR activity of rSjTGR-Sec (DTNB reduction, absorbance 412 nm)). Details: DTNB, pH 7.0, 25 °C, triplicate, >50 μM = flat response within range tested, read-out: IC50 of rSjTGR-Sec.
T1 sequence (B5THG7 1-596): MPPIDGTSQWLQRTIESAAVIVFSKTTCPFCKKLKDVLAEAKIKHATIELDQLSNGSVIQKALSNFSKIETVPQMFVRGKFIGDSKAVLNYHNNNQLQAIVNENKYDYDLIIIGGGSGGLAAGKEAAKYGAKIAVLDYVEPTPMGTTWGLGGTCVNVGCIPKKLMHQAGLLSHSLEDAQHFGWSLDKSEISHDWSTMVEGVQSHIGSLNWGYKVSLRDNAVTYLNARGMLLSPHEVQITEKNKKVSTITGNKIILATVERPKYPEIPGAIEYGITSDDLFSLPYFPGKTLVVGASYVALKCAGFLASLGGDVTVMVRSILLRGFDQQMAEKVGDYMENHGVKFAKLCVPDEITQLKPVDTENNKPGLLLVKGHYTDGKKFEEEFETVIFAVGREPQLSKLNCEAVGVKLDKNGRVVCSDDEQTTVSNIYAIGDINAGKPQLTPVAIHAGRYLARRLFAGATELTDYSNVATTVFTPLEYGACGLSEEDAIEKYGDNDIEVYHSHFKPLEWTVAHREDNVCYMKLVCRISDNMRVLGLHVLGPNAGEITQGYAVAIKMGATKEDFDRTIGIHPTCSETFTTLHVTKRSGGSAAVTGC
Format: biochemical
Method: The rSjTGR-Sec was expressed and harvested as described previously. […] The rSjTGR-Sec was purified by His Mag™ Agarose beads according to manufacturer’s instructions. The concentration of purified rSjTGR-Sec was determined using a Bradford assay kit (Sangon, China), and the protein was identified by sodium dodecyl sulfate polyacrylamide gel electrophoresis (SDS-PAGE) and stored at 4 °C [20].
The novel furoxan derivatives in this work were dissolved in DMSO with a storage solution concentration of 64 millimoles per liter. The analysis of TrxR activity of SWAP containing wtSjTGR and rSjTGR-Sec was performed based on methods described previously. Analysis of the inhibitory activity of the compounds against the TrxR activity of SWAP containing wtSjTGR and rSjTGR-Sec described in this paper was also based on a previously described method. The reaction was performed in 0.1 M potassium phosphate buffer (pH 7.0) containing 10 mM EDTA, 100 µM nicotinamide adenine dinucleotide phosphate (NADPH), 0.2 µg supernatant of SWAP containing wtSjTGR or 0.6 µg rSjTGR-Sec, and the studied compounds with different concentrations at 25 °C in a final volume of 200 μL, and was initiated by adding 3 mM DTNB. […] All assays were done in triplicate.

SMILES	IC50
O=C(OCc1c(-c2ccncc2)no[n+]1[O-])c1c(F)c(F)c(F)c(F)c1F [7ah, 3-(((perfluorobenzoyl)oxy)methyl)-4-(pyridin-4-yl)-1,2,5-oxadiazole 2-oxide]	> 50 µM
[O-][n+]1onc(-c2ccncc2)c1CNc1ccc(OC(F)(F)F)cc1 [9ab, 4-(pyridin-4-yl)-3-(((4-(trifluoromethoxy)phenyl)amino)methyl)-1,2,5-oxadiazole 2-oxide]	1.52 ± 0.2 µM
CC(C)(C)C(=O)OCc1c(-c2ccncc2)no[n+]1[O-] [7ad, 3-((pivaloyloxy)methyl)-4-(pyridin-4-yl)-1,2,5-oxadiazole 2-oxide]	> 50 µM
O=C(OCc1c(-c2cccnc2)no[n+]1[O-])c1cccs1 [7bk, 4-(pyridin-3-yl)-3-(((thiophene-2-carbonyl)oxy)methyl) -1,2,5-oxadiazole 2-oxide]	> 50 µM
O=C(CCl)OCc1c(-c2cccnc2)no[n+]1[O-] [7be, 3-((2-chloroacetoxy)methyl)-4-(pyridin-3-yl)-1,2,5-oxadiazole 2-oxide]	14.8 ± 3.67 µM
[O-][n+]1onc(-c2cccnc2)c1CNc1ccccc1 [9ba, 3-((phenylamino)methyl)-4-(pyridin-3-yl)-1,2,5-oxadiazole 2-oxide]	> 50 µM
C=CC(=O)OCc1c(-c2cccnc2)no[n+]1[O-] [7bj, 3-((acryloyloxy)methyl)-4-(pyridin-3-yl)-1,2,5-oxadiazole 2-oxide]	> 50 µM
[O-][n+]1onc(-c2ccc(C(F)(F)F)nc2)c1CNc1ccccc1 [9da, 3-((phenylamino)methyl)-4-(6-(trifluoromethyl)pyridin-3-yl)-1,2,5-oxadiazole 2-oxide]	3.73 ± 1.67 µM
[O-][n+]1onc(-c2ccncc2)c1CO [6a, 3-(hydroxymethyl)-4-(pyridin-4-yl)-1,2,5-oxadiazole 2-oxide]	0.036 ± 0.002 µM
CC(=O)OCc1c(-c2cccnc2)no[n+]1[O-] [7ba, 3-(acetoxymethyl)-4-(pyridin-3-yl)-1,2,5-oxadiazole 2-oxide]	> 50 µM
[O-][n+]1onc(-c2cccnc2)c1CNc1ccc(OC(F)(F)F)cc1 [9bb, 4-(pyridin-3-yl)-3-(((4-(trifluoromethoxy)phenyl)amino)methyl)-1,2,5-oxadiazole 2-oxide]	> 50 µM
O=C(OCc1c(-c2cccnc2)no[n+]1[O-])c1ccccc1 [7bf, 3-((benzoyloxy)methyl)-4-(pyridin-3-yl)-1,2,5-oxadiazole 2-oxide]	> 50 µM
CC(=O)OCc1c(-c2ccncc2)no[n+]1[O-] [7aa, 3-(acetoxymethyl)-4-(pyridin-4-yl)-1,2,5-oxadiazole 2-oxide]	> 50 µM
CCCC(=O)OCc1c(-c2ccncc2)no[n+]1[O-] [7ac, 3-((butyryloxy)methyl)-4-(pyridin-4-yl)-1,2,5-oxadiazole 2-oxide]	> 50 µM
[O-][n+]1onc(-c2ccncc2)c1CNc1ccccc1 [9aa, 3-((phenylamino)methyl)-4-(pyridin-4-yl)-1,2,5-oxad-iazole 2-oxide]	> 50 µM
[O-][n+]1onc(-c2cccnc2)c1CN1CCN(c2ccc(F)cc2)CC1 [9bc, 3-((4-(4-fluorophenyl)piperazin-1-yl)methyl)-4-(pyridin-3-yl)-1,2,5-oxadiazole 2-oxide]	> 50 µM
CC(C)(C)C(=O)OCc1c(-c2cccnc2)no[n+]1[O-] [7bd, 3-((pivaloyloxy)methyl)-4-(pyridin-3-yl)-1,2,5-oxadiazole 2-oxide]	> 50 µM
CC(=O)OCc1c(-c2ccc(C(F)(F)F)nc2)no[n+]1[O-] [7da, 3-(acetoxymethyl)-4-(6-(trifluoromethyl)pyridin-3-yl)-1,2,5-oxadiazole 2-oxide]	> 50 µM
CCC(=O)OCc1c(-c2ccncc2)no[n+]1[O-] [7ab, 3-((propionyloxy)methyl)-4-(pyridin-4-yl)-1,2,5-oxadiazole 2-oxide]	> 50 µM

SMILES	IC50
O=C(OCc1c(-c2ccncc2)no[n+]1[O-])c1cc(C(F)(F)F)cc(C(F)(F)F)c1 [7ai, 3-(((3,5-bis(trifluoromethyl)benzoyl)oxy)methyl)-4-(pyridin-4-yl)-1,2,5-oxadiazole 2-oxide]	> 50 µM
COc1ccc(-c2no[n+]([O-])c2COC(C)=O)cn1 [7ca, 3-(acetoxymethyl)-4-(6-methoxypyridin-3-yl)-1,2,5-oxadiazole 2-oxide]	> 50 µM
COc1ccc(-c2no[n+]([O-])c2CO)cn1 [6c, 3-(hydroxymethyl)-4-(6-methoxypyridin-3-yl)-1,2,5-oxadi-azole 2-oxide]	2.4 µM and 2.38 µM
CCCC(=O)OCc1c(-c2cccnc2)no[n+]1[O-] [7bc, 3-((butyryloxy)methyl)-4-(pyridin-3-yl)-1,2,5-oxadiazole 2-oxide]	> 50 µM
[O-][n+]1onc(-c2ccc(C(F)(F)F)nc2)c1CO [6d, 3-(hydroxymethyl)-4-(6-(trifluoromethyl)pyridine-3-yl)-1,2,5-oxadiazole 2-oxide]	0.0558 ± 0.00318 µM
[O-][n+]1onc(-c2ccncc2)c1CN1CCN(c2cccc(C(F)(F)F)c2)CC1 [9ad, 4-(pyridin-4-yl)-3-((4-(3-(trifluoromethyl)phenyl)piperazin-1-yl)methyl)-1,2,5-oxadiazole 2-oxide]	> 50 µM
[O-][n+]1onc(-c2ccncc2)c1CN1CCN(c2ccc(F)cc2)CC1 [9ac, 3-((4-(4-fluorophenyl)piperazin-1-yl)methyl)-4-(pyridin-4-yl)-1,2,5-oxadiazole 2-oxide]	> 50 µM
O=C(OCc1c(-c2cccnc2)no[n+]1[O-])c1cc(C(F)(F)F)cc(C(F)(F)F)c1 [7bi, 3-(((3,5-bis(trifluoromethyl)benzoyl)oxy)methyl)-4-(pyridin-3-yl)-1,2,5-oxadiazole 2-oxide]	> 50 µM
O=C(OCc1c(-c2cccnc2)no[n+]1[O-])c1c(F)c(F)c(F)c(F)c1F [7bh, 3-(((perfluorobenzoyl)oxy)methyl)-4-(pyridine-3-yl)-1,2,5-oxadiazole 2-oxide]	> 50 µM
COc1ccc(-c2no[n+]([O-])c2COC(=O)c2ccccc2)cn1 [7cf, 3-((benzoyloxy)methyl)-4-(6-methoxypyridin-3-yl)-1,2,5-oxadiazole 2-oxide]	> 50 µM
COc1ccc(-c2no[n+]([O-])c2CNc2ccccc2)cn1 [9ca, 4-(6-methoxypyridin-3-yl)-3-((phenylamino)methyl)-1,2,5-oxadiazole 2-oxide]	> 50 µM
CCC(=O)OCc1c(-c2cccnc2)no[n+]1[O-] [7bb, 3-((propionyloxy)methyl)-4-(pyridin-3-yl)-1,2,5-oxadiazole 2-oxide]	> 50 µM
[O-][n+]1onc(-c2cccnc2)c1CO [6b, 3-(hydroxymethyl)-4-(pyridin-3-yl)-1,2,5-oxadiazole 2-oxide]	0.39 ± 0.02 µM
O=C(OCc1c(-c2ccc(C(F)(F)F)nc2)no[n+]1[O-])c1ccccc1 [7df, 3-((benzoyloxy)methyl)-4-(6-(trifluoromethyl)pyridin-3-yl)-1,2,5-oxadiazole 2-oxide]	> 50 µM
O=C(OCc1c(-c2cccnc2)no[n+]1[O-])c1ccc(F)cc1 [7bg, 3-(((4-fluorobenzoyl)oxy)methyl)-4-(pyridine-3-yl)-1,2,5-oxadiazole 2-oxide]	> 50 µM
O=C(OCc1c(-c2ccncc2)no[n+]1[O-])c1ccc(F)cc1 [7ag, 3-(((4-fluorobenzoyl)oxy)methyl)-4-(pyridin-4-yl)-1,2,5-oxadiazole 2-oxide]	> 50 µM
O=C(OCc1c(-c2ccncc2)no[n+]1[O-])c1ccccc1 [7af, 3-((benzoyloxy)methyl)-4-(pyridin-4-yl)-1,2,5-oxadiazole 2-oxide]	3.23 ± 0.05 µM
O=C(CCl)OCc1c(-c2ccncc2)no[n+]1[O-] [7ae, 3-((2-chloroacetoxy)methyl)-4-(pyridin-4-yl)-1,2,5-oxadiazole 2-oxide]	> 50 µM

Same assay, conditions: IC50 of rSjTGR-Sec, DTNB, pH 7.0, 25 °C, triplicate, >50 μM = flat response within range tested

SMILES	IC50 [µM]
Cc1ccc(S(=O)(=O)N(Cc2c(-c3cccnc3)no[n+]2[O-])O[Si](C)(C)C(C)(C)C)cc1 [9be, 3-(((N-((tert-butyldimethylsilyl)oxy)-4-methylphenyl)sulfonamido)methyl)-4-(pyridin-3-yl)-1,2,5-oxadiazole 2-oxide]	0.22 ± 0.01
N#Cc1c(-c2ccccc2)no[n+]1[O-] [Furoxan, reference compound]	5.87 ± 1.37

Same assay, conditions: furoxan as positive control

SMILES	inhibitory effect on rSjTGR-Sec (in words)
COc1ccc(-c2no[n+]([O-])c2COC(=O)c2ccccc2)cn1 [7cf, 3-((benzoyloxy)methyl)-4-(6-methoxypyridin-3-yl)-1,2,5-oxadiazole 2-oxide]	did not show an inhibitory effect
O=C(CCl)OCc1c(-c2ccncc2)no[n+]1[O-] [7ae, 3-((2-chloroacetoxy)methyl)-4-(pyridin-4-yl)-1,2,5-oxadiazole 2-oxide]	did not show an effective inhibitory effect

Same assay, conditions: read-out: IC50 of rSjTGR-Sec

SMILES	IC50
[O-][n+]1onc(-c2ccncc2)c1CO [6a, 3-(hydroxymethyl)-4-(pyridin-4-yl)-1,2,5-oxadiazole 2-oxide]	0.036 µM
[O-][n+]1onc(-c2ccc(C(F)(F)F)nc2)c1CO [6d, 3-(hydroxymethyl)-4-(6-(trifluoromethyl)pyridine-3-yl)-1,2,5-oxadiazole 2-oxide]	0.0075 µM and 0.0558 µM
